From patent US8497271B2, “Modulators of G protein-coupled receptor 88” (Bristol-Myers Squibb Company, priority 2009, dated 2013)
Read-outs that look alike come from different tables or passages of the source.

Molecular target: G protein-coupled receptor 88 (Homo sapiens, UniProt Q9GZN0)
Experiment: EC50 of select compounds as GPR88 modulators (Table 2; GTPγS assay and cAMP HTRF assay are both described, and the one used is not stated)
Type: cell-based
Conditions: read-out: Range (EC50)
Description: 96 well GTPγS assay plates were purchased from Perkin Elmer. Wheat Germ Agglutinin PVT SPA beads and ^35S-GTPγS were purchased from Amersham GDP, GTPγS and all buffer reagents were from Sigma. 384 well white NBS plates were purchased from corning. Pertussis toxin was purchased from Calbiochem. All cell culture reagents were purchased from Invitrogen. Forskolin was purchased from Sigma. The cAMP HTRF kit was purchased fron Cisbio International.
The GTPγS assay buffer consisted of 10 mM MgCl2, 180 mM NaCl, 200 uM GDP, 0.167 mg/ml DTT, 1 mM EGTA and 20 mM HEPES pH7.4. This buffer was used for dilution of membranes, beads, and ^35S GTPγS components. To each well of the 96 well assay plate 48 ul assay buffer, 2 ul of 100× compound, 50 ul membrane solution (0.2 ug/ul), 50 ul ^35S GTPγS solution (0.8 nM) and 50 ul of SPA beads (10 mg/ml). Non-specific binding was determined by the addition of cold GTPγS to control wells. The plates were sealed with clear sealing tape and incubated at room temperature for 1 hour. GTPγS activity was detected using a Wallac Micro-Beta Trilux liquid scintillation counter. Non-specific binding was determined using 10 uM cold GTPγS.
The cAMP HTRF assay is modified from the Cisbio International kit procedure 62AM4PEJ. Assay plates were prepared by stamping 0.1 ul of 100× compound stock solutions diluted in DMSO or DMSO alone into 384 well NBS plates. The cAMP HTRF assay was performed using cells in suspension. The cAMP HTRF assay buffer consisted of Hank's Balanced Salt Solution (HBSS), 2 mM CaCl2, 5 mM MgCl2, 20 mM HEPES and 1 mM 3-isobutyl-1-methylxanthine (IBMX) (added fresh at the time of assay). For pertussis toxin treatment pertussis toxin (100 ng/ml) was added to culture medium for 16 hours prior to assay. Confluent cells were disrupted with cell dissociation buffer count cells then centrifuged at 1000×g for minutes. The cell pellet was resuspended in assay buffer alone for basal cAMP measurements or with 0.75 uM forskolin (added immediately prior to addition to wells) for addition to all other wells. Using a Multidrop 384 (Lab systems) 10 ul of cell suspension was added to each well containing compound or DMSO. The plates were incubated at room temperature for 30 minutes covered. During this time the cAMP standard curve was prepared as per manufacturer's instruction. At the end of the incubation 10 ul of anti-cAMP cryptate and 10 ul cAMP-XL, diluted in manufacturer's lysis buffer, were added to each well. The plated were incubated at room temperature for 60 minutes covered then read on an Envision plate reader (Perkin Elmer) and the 665 nm/620 nm fluorescence ratio determined Fluorescence ratio values were converted to molar cAMP concentrations from the standard curve using the GraphPad Prism program.

G protein-coupled receptor 88, sequence (Q9GZN0 whole entry, species assumed): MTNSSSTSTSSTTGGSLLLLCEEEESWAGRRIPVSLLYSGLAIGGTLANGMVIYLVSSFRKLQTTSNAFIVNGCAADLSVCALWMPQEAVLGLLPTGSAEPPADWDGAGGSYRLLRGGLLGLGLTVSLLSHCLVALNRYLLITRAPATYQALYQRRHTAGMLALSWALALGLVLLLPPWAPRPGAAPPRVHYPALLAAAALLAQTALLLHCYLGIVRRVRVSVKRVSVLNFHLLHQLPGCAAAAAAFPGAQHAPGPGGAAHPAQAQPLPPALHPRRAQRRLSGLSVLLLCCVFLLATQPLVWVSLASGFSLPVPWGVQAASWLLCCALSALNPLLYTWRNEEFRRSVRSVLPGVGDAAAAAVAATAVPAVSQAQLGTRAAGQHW

Compound | EC50 (numeric value printed) [nM] | EC50 (class symbol X) [nM]
Cc1ccc(-c2ccc([C@H](CO)NC(=O)C3CC3c3cccs3)cc2)cc1 (stereo in doubt) [Example 5, (1S,2S)-2-Thiophen-2-yl-cyclopropanecarboxylic acid [(R)-2-hydroxy-1-(4′-methyl-biphenyl-4-yl)-ethyl]-amide] | 81 | –
CCC(CC)COc1ccc([C@H](CO)NC(=O)[C@H]2C[C@@H]2c2ccccc2)c(OC)c1 [Example 3, (1S,2S)-2-Phenyl-cyclopropanecarboxylic acid {(R)-1-[4-(2-ethyl-butoxy)-2-methoxy-phenyl]-2-hydroxy-ethyl}-amide] | – | 62 to 130
CC[C@H](C)COc1ccc([C@H](CO)NC(=O)[C@H]2C[C@@H]2c2cccs2)cc1 [Example 6, (1S,2S)-2-Thiophen-2-yl-cyclopropanecarboxylic acid {(R)-2-hydroxy-1-[4-((S)-2-methyl-butoxy)-phenyl]-ethyl}-amide] | 124 | –
COc1cc(-c2ccc(C)cc2)ccc1[C@H](CO)NC(=O)[C@H]1C[C@@H]1c1cccs1 [Example 12, (1S,2S)-2-Thiophen-2-yl-cyclopropanecarboxylic acid [(R)-2-hydroxy-1-(3-methoxy-4′-methyl-biphenyl-4-yl)-ethyl]-amide] | – | 62 to 130
CCCC(C)COc1ccc([C@H](CO)NC(=O)[C@H]2C[C@@H]2c2cccs2)cc1 (stereo partly drawn) [Example 15, (1S,2S)-2-Thiophen-2-yl-cyclopropanecarboxylic acid {(R)-2-hydroxy-1-[4-(2-methyl-pentyloxy)-phenyl]-ethyl}-amide] | 74 | –
